Assays:
[1] = tested on: cultured human mast cells (CHMC); experiment: CHMC low cell density IgE activation: LTC4 assay; type: cell-based; details: anti-IgE activation, LTC4 release
Outline: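 Degranulation measured after 30 min anti-IgE challenge at 37° C of CHMC plated at 1000-1500 cells/well following 1 h preincubation. Readouts: LTC4 by ELISA on donor-specific diluted supernatants, and tryptase activity from a 30 min room-temperature substrate reaction.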

[2] = tested on: cultured human mast cells (CHMC); experiment: CHMC low cell density ionomycin activation: tryptase assay; type: cell-based
[3] = tested on: bone marrow derived mast cells (BMMC); experiment: BMMC high cell density IgE activation: hexosaminidase; type: cell-based, mouse
[4] = tested on: basophil cells (human peripheral blood); experiment: Basophil anti-IgE activation: histamine release assay; type: cell-based; details: basophils, anti-IgE activation, histamine release; read-out: Basophils anti-IgE Histamine IC50
Description: The basophil activation assay was carried out using whole human peripheral blood from donors allergic to dust mites with the majority of the red blood cells removed by dextran sedimentation. Human peripheral blood was mixed 1:1 with 3% dextran T500 and RBCs were allowed to settle for 20-25min. The upper fraction was diluted with 3 volumes of D-PBS and cells were spun down for 10 min at 1500 rpm, RT. Supernatant was aspirated and cells were washed in an equal volume MT-buffer. Finally, cells were resuspended in MT-buffer containing 0.5% DMSO in the original blood volume. 80 uL cells were mixed with 20 uL compound in the presence of 0.5% DMSO, in triplicate, in a V-bottom 96-well tissue culture plate. A dose range of 8 compound concentrations was tested resulting in a 10-point dose response curve including maximum (stimulated) and minimum (unstimulated) response. […] The cells were stimulated for 30 minutes at 37° C., 5% CO2. The plate was spun for 10 min at 1500 rpm at room temperature and 80 uL the supernatant was harvested for histamine content analysis using the histamine ELISA kit supplied by Immunotech. The ELISA was performed according to supplier's instructions.

[5] = tested on: basophil cells (human peripheral blood); experiment: Basophil ionomycin activation: histamine release assay; type: cell-based; details: basophils, ionomycin activation, histamine release; read-out: Basophils Ionomycin Histamine IC50
Outline: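 Dextran-sedimented leukocytes from peripheral blood of dust-mite-allergic human donors were incubated with compound (8 concentrations, 0.5% DMSO, triplicate) and then stimulated with 2 μM ionomycin stock (20 μl added) for 30 min at 37° C. Histamine released into the supernatant was measured by ELISA.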

[6] = tested on: Jurkat cells; experiment: Jurkat (T-cell) toxicity, light scatter; type: cell-based, human; details: read-out: Toxicity Jurkat Light Scat.
Description: Dilute Jurkat cells to 2×10^5 cells/ml in complete RPMI (10% heat-inactivated fetal bovine serum) media and incubate at 37° C., 5% CO2 for 18 hours. Add 65 ul cells at 7.7×10^5 cells/ml to a 96-well V-bottom plate (TC-treated, Costar) containing 65 ul 2× compound (final vehicle concentration is 0.5% DMSO, 1.5% MeOH). Mix, incubate plates for 18-24 hr at 37° C., 5% CO2. Toxicity was assessed by flow cytometric analysis of cellular light scatter

[7] = tested on: B-cell line BJAB; experiment: BJAB (B-cell) toxicity, light scatter; type: cell-based; details: read-out: Toxicity BJAB Light Scat.
Description: The B-cell line BJAB was cultured in log phase in RPMI1640+10% heat-inactivated fetal bovine serum, 1× L-glutamine, 1× penicillin, 1× […] and 1× beta-mercaptoethanol at 37° C., 5% CO2. First, BJABs were harvested, spun and resuspended in culture medium to a concentration of 7.7×10^5 cells/mL. 65 uL cells were mixed with 65 uL compound, in duplicate and in the presence of 0.1% DMSO in a V-bottomed 96-well tissue culture plate. Cells were incubated with compound at various dilutions at 37° C., 5% CO2. Toxicity was assessed by flow cytometric analysis of cellular light scatter.

[8] = tested on: Human Jurkat T-cells (clone N); experiment: Jurkat T-cell activation (anti-TCR, CD69 upregulation); type: cell-based
Outline: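 Readout is CD69 upregulation by flow cytometry (anti-CD69-APC, 20 min at 4 °C) after 20 h anti-TCR (C305, 500 ng/ml) stimulation at 37 °C.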

[9] = tested on: bone marrow derived mast cells (BMMC); experiment: BMMC high cell density ionomycin activation: hexosaminidase; type: cell-based, mouse; details: read-out: BMMC Ionomycin Hexos.
Description: Add 50 uL of BMMC cell supernatant (see above) to the hexoseaminidase substrate, place at 37° C. for 30 minutes and read the plate at 5, 10, 15, and 30 minutes on a spectrophotometer.

[10] = tested on: cultured human mast cells (CHMC); experiment: CHMC low cell density ionomycin activation: hexosaminidase assay; type: cell-based; details: hexosaminidase release, read-out: CHMC Ionomycin Hexos. IC50
Description: (§1) Inhibition of degranulation was measured at both low and high cell density by quantifying the release of the granule specific factors tryptase, histamine and hexosaminidase. Inhibition of release and/or synthesis of lipid mediators was assessed by measuring the release of leukotriene LTC4 and inhibition of release and/or synthesis of cytokines was monitored by quantifying TNF-α, IL-6 and IL-13. Tryptase and hexosaminidase were quantified using fluorogenic substrates as described in their respective examples. Histamine, TNFα, IL-6, IL-13 and LTC4 were quantified using the following commercial ELISA kits: histamine (Immunotech #2015, Beckman Coulter), TNFα (Biosource #KHC3011), IL-6 (Biosource #KMC0061), IL-13 (Biosource #KHC0132) and LTC4 (Cayman Chemical #520211). The protocols of the various assays are provided below.

[11] = tested on: cultured human mast cells (CHMC); experiment: CHMC low cell density IgE activation: hexosaminidase assay; type: cell-based; details: anti-IgE activation, hexosaminidase release, read-out: CHMC anti-IgE Hexos. IC50
Description: as §1

[12] = tested on: cultured human mast cells (CHMC); experiment: CHMC low cell density IgE activation: tryptase assay; type: cell-based; details: low cell density; read-out: CHMC anti-IgE Tryptase
Outline: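 Supernatant tryptase activity, assayed with substrate for 30 min at room temperature, served as the degranulation measure. Mast cells (1000-1500 per well depending on donor) sat 1 hr at 37° C in MT before a 30 min anti-IgE challenge at 37° C.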

[13] = tested on: bone marrow derived mast cells (BMMC); experiment: BMMC high cell density IgE activation: TNFalpha; type: cell-based, mouse; details: high cell density; read-out: BMMC anti-IgE TNF-alpha
Description: (§2) After sensitizing, cells are counted, pelleted (1000 rpm, 5-10 minutes), and resuspended at 1-3×10^6 cells/ml in MT buffer. Add 100 ul of cell suspension to each well and 100 ul of compound dilutions. The final vehicle concentration is 0.5% DMSO. Incubate at 37° C. (5% CO2) for 1 hour. After 1 hour of compound treatment, stimulate cells with 6× stimulus (60 ng/ml DNP-BSA). Mix wells with the cells and allow plates to incubate at 37° C. (5% CO2) for one hour. After 1 hour incubation, pellet cells (10 minutes, 1000 RPM) and collect 200 ul per well of the supernatant, being careful not to disturb pellet, and transfer to a clean tube or 96-well plate. Place the supernatant plate on ice. During the 4-5 hour step (see next) perform the hexosiminidase assay. Resuspend cell pellet in 240 ul WEI-conditioned media containing 0.5% DMSO and corresponding concentration of compound. Incubate BMMC cells for 4-5 hours at 37° C. (5% CO2). After incubation, pellet cells (1000 RPM, 10 minutes) and collect 225 ul per well and place in −80° C. until ready to perform ELISAS. ELISAS are performed on appropriately diluted samples (determined empirically for each donor cell population so that the sample measurement falls within the standard curve) following the supplier's instructions.

[14] = tested on: bone marrow derived mast cells (BMMC); experiment: BMMC high cell density IgE activation: IL-6; type: cell-based, mouse; details: high cell density; read-out: BMMC anti-IgE IL-6
Description: as §2

[15] = target: T1, Syk kinase (Homo sapiens, UniProt P43405); experiment: Syk kinase biochemical fluorescence polarization assay; details: isolated Syk kinase, fluorescence polarization, 4 uM ATP
T1 construct: purchased Upstate, Lake Placid NY

[16] = tested on: Primary T-cells; experiment: Primary T-cell cytokine production (αCD3/αCD28): IL-2; type: cell-based, human; details: read-out: 1° T-Cell IL2 IC50
Description: (§3) 2E8-4E8 PBMC or proliferating T cells grown in rIL-2 from healthy human donors were suspended in PBS were spun down (1500 rpm, 8-10 minutes) and resuspended in 100 ml RPMI Complete media (1% Pen-Strep, 1% L-Glutamine, 10 mM HEPES). The cells were plated in T175 flasks (37° C., 5% CO2) and monocytes were allowed to adhere for 2-3 hours. After monocyte attachment, non-adherent cells were harvested, counted by hemocytometer, washed several times with PBS then resuspended in Yssels Complete Media (Modified IMDM Media with 1% Human AB Serum, 1% Pen-Strep, 1% L-Glutamine, 10 mM HEPES) at […]. 90 uL of the cell dilution were then added to compounds diluted to 2× in Yssel's media and incubated for 30 minutes at 37° C. (5% CO2). After this preincubation step the compound/cell mixture was transferred to stimulation plates, as described below.
(§4) Stimulation plates were prepared by coating 96 well plates with 5 μg/ml αCD3 (BD PharMingen, Catalog #555336)+10 μg/ml αCD28 (Beckman Coulter, Catalog #IM1376) in PBS (no Ca^2+/Mg^2+) at 37° C. (5% CO2) for at 3-5 hours. After incubation with the stimulation antibodies, the cocktail was removed and the plates washed 3 times with PBS prior to addition of the primary T cell/compound mixture.
(§5) The compound/cell mixture was transferred to the stimulation plates and incubated for 18 hr at 37° C. (5% CO2). After the cell stimulation, ˜150 μl supernatant were transferred from each well into 96-well filter plates (Coming PVDF Filter Plates) spun down (2000 rpm, 2-3 minutes) and either used immediately for ELISA or LUMINEX measurements or frozen down at −80° C. for future use.
IL-2 ELISAs were performed using the Quantikine Human IL-2 ELISA kit (R&D Systems, Catalog # D2050) as described by the manufacturer and absorption was measured on a spectrophotometer at 450 nm wavelength. Blank values were substracted and absorbances were converted to pg/mL based on the standard curve.
(§6) Luminex immunoassay multiplexing for TNF, IL-2, GMSCF, IL-4 and IFNg was performed essentially as described by the manufacturer (Upstate Biotechnology). Essentially 50 uL of sample was diluted into 50 uL assay diluent and 50 uL incubation buffer, then incubated with 100 uL of the diluted detection antibody for 1 hr at RT in the dark. The filter plate was washed 2× in Wash Buffer, then incubated with 100 uL of the diluted secondary reagent (SAV-RPE) for 30 min at RT in the dark. Finally the plates were washed 3 times and bead identification and RPE fluorescent measured by the Luminex instrument.
(§7) Varied concentrations of compound were compared to solvent only to determine the inhibition of T-cell activation IC50 of each compound.

[17] = tested on: Primary T-cells; experiment: Primary T-cell cytokine production (αCD3/αCD28): TNF; type: cell-based, human; details: read-out: 1° T-Cell TNF IC50
Description: as §3
(5% CO2) for at 3-5 hours. After incubation with the stimulation antibodies, the cocktail was removed and the plates washed 3 times with PBS prior to addition of the primary T cell/compound mixture.
as §5, §6, §7

[18] = tested on: Primary T-cells; experiment: Primary T-cell cytokine production (αCD3/αCD28): GMSCF; type: cell-based, human; details: read-out: 1° T-Cell GMSCF IC50
Description: as §3, §4, §5, §6, §7

[19] = tested on: Primary T-cells; experiment: Primary T-cell cytokine production (αCD3/αCD28): IL-4; type: cell-based, human; details: read-out: 1° T-Cell IL4 IC50
Description: as §3, §4, §5, §6, §7

[20] = tested on: Primary T-cells; experiment: Primary T-cell cytokine production (αCD3/αCD28): IFNg; type: cell-based, human; details: read-out: 1° T-Cell IFNg IC50
Description: as §3, §4, §5, §6, §7

[21] = High Density, read-out: BMMC anti-IgE hexos

IC50 [1] [nM]	IC50 [3, 21] [nM]	IC50 [4] [nM]	IC50 [5] [nM]	IC50 [8] [nM]	IC50 [9] [nM]	IC50 [10] [nM]	IC50 [11] [nM]	SMILES	IC50 [6] [nM]	IC50 [7] [nM]	other results
800	600	370	> 10000	4380	> 10000	> 10000		Oc1cccc(Nc2ncc(F)c(Nc3ccc4c(c3)OCCO4)n2)c1 [Compound R926210]	> 10000	> 10000	IC50 ([2]; Low Density CHMC, ionomycin activation, tryptase release, read-out: CHMC Ionomycin Tryptase IC50): > 10000 nM
1590	1350			> 10000	5000	6700	761	CCOc1ccc(Nc2nc(Nc3cccc(O)c3)ncc2F)cc1 [Compound R926146]	> 10000	> 10000	
760	900	950	> 10000	10400	> 10000	6400	787	CCOc1ccc(Nc2nc(Nc3ccc(OC)c(OC)c3)ncc2F)cc1 [Compound R926108]	> 10000	> 10000	
				224				CNC(=O)COc1cccc(Nc2ncc(F)c(Nc3ccc4c(c3)NC(=O)[C@H](C)O4)n2)c1 [Compound R909317]			IC50 [12]: 28.7 nM; IC50 ([2]; low cell density, read-out: CHMC Ionomycin Tryptase): > 10000 nM; IC50 ([3]; high cell density, read-out: BMMC anti-IgE Hexos.): 2 nM; IC50 [13]: 7 nM; IC50 [14]: 6 nM; IC50 [15]: 8 nM; IC50 [16]: 1320 nM; IC50 [17]: 595 nM; IC50 [18]: 1740 nM; IC50 [19]: 876 nM; IC50 [20]: 1570 nM

Source: patent publication US8158621B2, “Methods of treating or preventing autoimmune diseases with 2,4-pyrimidinediamine compounds” (Rigel Pharmaceuticals, Inc., priority 2002, dated 2012)
